Results reported in ChEMBL document CHEMBL6134785, “New ATP-competitive inhibitors of E. coli GyrB obtained from the mapping of the hydrophobic floor at the binding site: synthesis and biological evaluation” (RSC Med Chem, 2024).

Biological target: DNA gyrase (Escherichia coli, UniProt P0AES4+P0AES6)
Assay: Inhibition of Escherichia coli DNA gyrase supercoiling activity incubated for 30 mins in presence of spermidine/ATP by fluorescence based analysis
Assay type: protein-complex assay

Row | SMILES | IC50 [nM]
1 | O=C(O)C(=O)Nc1ccc2nc(N(Cc3ccccc3)C(=O)c3cc(Br)c(Br)[nH]3)sc2c1 | 19
2 | O=C(O)C(=O)Nc1ccc2nc(N(Cc3cccc(C(=O)O)c3)C(=O)c3cc(Br)c(Br)[nH]3)sc2c1 | 96
3 | O=C(O)C(=O)Nc1ccc2c(c1)s/c(=N\C(=O)c1cc(Br)c(Br)[nH]1)n2Cc1ccccc1 | 134
